Laboratory results: paper PMC10629583, “Specific inhibition of an anticancer target, polo-like kinase 1, by allosterically dismantling its mechanism of substrate recognition” (Proceedings of the National Academy of Sciences of the …, 2023)

Assays:
[1] = molecular target: T1, 5-HT1E (Homo sapiens, UniProt P28566); test: PDSP off-target binding screen; conditions: for inhibition at 10 µM: read-out: Primary screen AVE(%inhib)±SD; for Ki: read-out: Secondary screen Ki
T1 construct: NIMH Psychoactive Drug Screening Program (UNC)
T1 sequence (P28566 whole entry): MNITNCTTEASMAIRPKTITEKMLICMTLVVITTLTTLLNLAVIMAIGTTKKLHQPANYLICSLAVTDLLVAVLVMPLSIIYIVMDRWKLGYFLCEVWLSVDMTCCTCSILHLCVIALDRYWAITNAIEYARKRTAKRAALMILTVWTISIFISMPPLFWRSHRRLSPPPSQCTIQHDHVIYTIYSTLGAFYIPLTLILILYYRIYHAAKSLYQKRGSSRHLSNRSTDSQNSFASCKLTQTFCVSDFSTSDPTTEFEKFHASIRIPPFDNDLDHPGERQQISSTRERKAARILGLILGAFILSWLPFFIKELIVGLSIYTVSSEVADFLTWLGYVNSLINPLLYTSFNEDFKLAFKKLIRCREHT
Source text: (§1) PDSP no. Compound Interactions (Ki, µM)
(§2) 60477 Allopole-A None observed.
(§3) trigger a secondary screen at that receptor.

[2] = molecular target: T2, M5 (Homo sapiens, UniProt P08912); test: PDSP off-target binding screen; conditions: for inhibition at 10 µM: read-out: Primary screen AVE(%inhib)±SD; for Ki: read-out: Secondary screen Ki
T2 sequence (P08912 1-532): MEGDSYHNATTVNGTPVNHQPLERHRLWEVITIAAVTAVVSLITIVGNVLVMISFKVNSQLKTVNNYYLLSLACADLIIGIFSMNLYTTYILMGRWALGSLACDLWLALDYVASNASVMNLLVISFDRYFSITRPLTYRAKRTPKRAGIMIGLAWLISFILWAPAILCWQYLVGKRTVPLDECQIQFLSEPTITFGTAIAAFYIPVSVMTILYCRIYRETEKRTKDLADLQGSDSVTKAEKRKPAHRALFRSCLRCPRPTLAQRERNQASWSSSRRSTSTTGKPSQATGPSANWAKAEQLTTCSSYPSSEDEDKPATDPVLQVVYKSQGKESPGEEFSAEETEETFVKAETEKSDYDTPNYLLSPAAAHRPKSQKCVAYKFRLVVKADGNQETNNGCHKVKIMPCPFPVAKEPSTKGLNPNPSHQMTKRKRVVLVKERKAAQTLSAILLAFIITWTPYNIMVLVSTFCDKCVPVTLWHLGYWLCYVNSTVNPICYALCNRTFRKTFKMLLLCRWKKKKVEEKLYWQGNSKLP
Source text: as §1, §2, §3

[3] = molecular target: T3, Alpha2C (Homo sapiens, UniProt P18825); test: PDSP off-target binding screen; conditions: for inhibition at 10 µM: read-out: Primary screen AVE(%inhib)±SD; for Ki: read-out: Secondary screen Ki
T3 sequence (P18825 1-462): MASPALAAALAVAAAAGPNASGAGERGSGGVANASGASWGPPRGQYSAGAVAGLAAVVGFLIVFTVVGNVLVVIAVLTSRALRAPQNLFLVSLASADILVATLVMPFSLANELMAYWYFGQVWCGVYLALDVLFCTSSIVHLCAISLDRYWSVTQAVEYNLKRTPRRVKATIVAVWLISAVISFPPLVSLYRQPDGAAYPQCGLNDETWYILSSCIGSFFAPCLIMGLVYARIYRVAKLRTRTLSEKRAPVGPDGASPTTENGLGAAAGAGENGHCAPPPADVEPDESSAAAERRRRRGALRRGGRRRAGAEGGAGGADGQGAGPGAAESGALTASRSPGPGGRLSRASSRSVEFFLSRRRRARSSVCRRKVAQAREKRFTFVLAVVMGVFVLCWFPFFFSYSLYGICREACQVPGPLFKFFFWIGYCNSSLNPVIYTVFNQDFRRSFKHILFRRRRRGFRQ
Source text: as §1, §2, §3

[4] = molecular target: T4, M2 (Homo sapiens, UniProt P08172); test: PDSP off-target binding screen; conditions: for inhibition at 10 µM: read-out: Primary screen AVE(%inhib)±SD; for Ki: read-out: Secondary screen Ki
T4 sequence (P08172 1-466): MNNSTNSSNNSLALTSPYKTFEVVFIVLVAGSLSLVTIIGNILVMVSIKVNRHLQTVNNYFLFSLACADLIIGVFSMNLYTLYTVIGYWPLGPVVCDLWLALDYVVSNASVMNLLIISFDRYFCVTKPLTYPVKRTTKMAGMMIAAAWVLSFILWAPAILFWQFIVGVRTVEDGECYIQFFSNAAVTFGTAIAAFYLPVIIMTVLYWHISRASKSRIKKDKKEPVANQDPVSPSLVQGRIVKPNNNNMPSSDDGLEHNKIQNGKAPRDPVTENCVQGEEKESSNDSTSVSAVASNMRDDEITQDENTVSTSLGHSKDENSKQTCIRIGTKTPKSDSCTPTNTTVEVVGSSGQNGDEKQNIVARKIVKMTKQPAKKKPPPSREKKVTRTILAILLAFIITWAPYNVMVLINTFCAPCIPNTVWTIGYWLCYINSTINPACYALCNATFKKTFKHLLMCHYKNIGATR
Source text: as §1, §2, §3

[5] = molecular target: Sigma 1 (Homo sapiens, UniProt Q99720); test: PDSP off-target binding screen; conditions: for inhibition at 10 µM: read-out: Primary screen AVE(%inhib)±SD; for Ki: read-out: Secondary screen Ki
Sequence of Sigma 1 (Q99720 whole entry): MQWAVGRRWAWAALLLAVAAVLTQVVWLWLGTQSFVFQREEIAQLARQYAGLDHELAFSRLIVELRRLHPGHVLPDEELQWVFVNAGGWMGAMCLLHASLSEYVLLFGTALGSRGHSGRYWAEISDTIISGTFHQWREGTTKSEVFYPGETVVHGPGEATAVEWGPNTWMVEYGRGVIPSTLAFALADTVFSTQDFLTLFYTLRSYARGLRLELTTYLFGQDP
Source text: as §1, §2, §3

[6] = Conversion of Allopole to Allopole-A in buffers ± GSH (LC-MS); assay type: physicochemical; conditions: room temperature, 1 h; for Compounds detected / Compounds detected, % of total / Compounds detected, pk area: 100 µM Allopole
Description: High-performance liquid chromatography (HPLC)/high-resolution mass spectrometry was used to determine the products derived from investigational drugs incubated under various conditions by measuring their exact masses. Thereafter, 20 μL aliquots of several drug preparations in either DMSO or aqueous reaction solutions were diluted 2:1 in ethanol, followed by centrifugation at 15,000 × g for 5 min. The supernatant was then injected on a Thermo Vanquish liquid chromatograph coupled to a Thermo Q Exactive Orbitrap mass spectrometer (Thermo Fisher Scientific). The conditions for the analysis are listed as follows.
The analytes were identified using the Dmass between the predicted and measured exact monoisotopic mass for the protonated molecular ions applied to the empirical formula algorithm in the Qual Browser application of the Xcalibur software (Themo Scientific). Selected ions from the base peak chromatogram were extracted for integration of peak areas. The relative amounts of each analyte to the sum total were calculated to estimate conversion of and prodrug under the specific conditions to breakdown products.
Table S2. Conversion of Allopole to Allopole-A under various buffer conditions, room
Buffers* Compounds detected
Allopole-A Allopole-A (-S) Allopole (-Cl) Allopole
* Buffer #1: 20 mM Tris (pH 8.0), 50 mM NaCl, 1 mM EDTA, 1% DMSO
Buffer #2: 1 x PBS (pH 7.4), 1 mM EDTA, 1% DMSO
Buffer #3: 20 mM HEPES (pH 7.0), 50 mM NaCl, 1 mM EDTA, 1% DMSO
Samples were prepared by incubating 100 µM of Allopole in the indicated buffer conditions in the
absence or presence of 5 mM GSH for 1 h at room temperature. Note that in the absence of GSH,

[7] = Buffer #1 (20 mM Tris pH 8.0), no GSH
[8] = Buffer #2 (1 x PBS pH 7.4), no GSH
[9] = Buffer #3 (20 mM HEPES pH 7.0), no GSH

Compound	inhibition at 10 µM [1] [%]	Ki [1] [µM]	inhibition at 10 µM [2] [%]	Ki [2] [µM]	inhibition at 10 µM [3] [%]	Ki [3] [µM]	inhibition at 10 µM [4] [%]	Ki [4] [µM]	inhibition at 10 µM [5] [%]	Ki [5] [µM]	Compounds detected [6, 7] [µmol/L]	Compounds detected, % of total [6, 7] [%]	Compounds detected, pk area [6, 7]	Compounds detected ([6]; Buffer #1 + 5 mM GSH) [µmol/L]	Compounds detected, % of total ([6]; Buffer #1 + 5 mM GSH) [%]	Compounds detected, pk area ([6]; Buffer #1 + 5 mM GSH)	Compounds detected [6, 8] [µmol/L]	Compounds detected, % of total [6, 8] [%]	Compounds detected, pk area [6, 8]	Compounds detected ([6]; Buffer #2 + 5 mM GSH) [µmol/L]	further results
O=c1c2sc(Cl)cc2n2c(=S)[nH]nc2n1CC1CC1 [Allopole-A]	31.3 ± 7.6	> 10	130 ± 3	> 10	10.6 ± 4.2	> 10	21.1 ± 19.7	> 10	2 ± 21.4	> 10	1.3	1.3	9.61E+06	95.4	95.4	1.38E+09	0.8	0.8	4.90E+06	77.9	Compounds detected, % of total ([6]; Buffer #2 + 5 mM GSH): 77.9%; Compounds detected, pk area ([6]; Buffer #2 + 5 mM GSH): 5.81E+08; Compounds detected [6, 9]: 1.9 µmol/L; Compounds detected, % of total [6, 9]: 1.9%; Compounds detected, pk area [6, 9]: 1.56E+06; Compounds detected ([6]; Buffer #3 + 5 mM GSH): 66.9 µmol/L; Compounds detected, % of total ([6]; Buffer #3 + 5 mM GSH): 66.9%; Compounds detected, pk area ([6]; Buffer #3 + 5 mM GSH): 1.89E+08
Cn1cnc([N+](=O)[O-])c1Sc1nnc2n(CC3CC3)c(=O)c3sc(Cl)cc3n12 [Allopole]	22.2 ± 10.5	> 10	95 ± 7.4	> 10	6.4 ± 7.5	> 10	9.3 ± 19.3	> 10	41.8 ± 11.9	> 10	97.9	97.9	7.45E+08	0.1	0.1	8.76E+05	97.6	97.6	6.28E+08	0.0	Compounds detected, % of total ([6]; Buffer #2 + 5 mM GSH): 0.0%; Compounds detected, pk area ([6]; Buffer #2 + 5 mM GSH): 2.41E+03; Compounds detected [6, 9]: 93.1 µmol/L; Compounds detected, % of total [6, 9]: 93.1%; Compounds detected, pk area [6, 9]: 7.80E+07; Compounds detected ([6]; Buffer #3 + 5 mM GSH): 0.0 µmol/L; Compounds detected, % of total ([6]; Buffer #3 + 5 mM GSH): 0.0%; Compounds detected, pk area ([6]; Buffer #3 + 5 mM GSH): 9.35E+04; Unmasking of the prodrug by GSH (in words) ([6]; 5 mM GSH): completely unmask; Stability in buffer (in words) ([6]; absence of GSH): remains stable
